Test results: ChEMBL document CHEMBL4765241, “Identification and Preclinical Pharmacology of ((1 R,3 S)-1-Amino-3-(( S)-6-(2-methoxyphenethyl)-5,6,7,8-tetrahydronaphthalen-2-yl)cyclopentyl)methanol (BMS-986166): A Differentiated Sphingosine-1-phosphate Receptor 1 (S1P) Modulator Advanced into Clinical Trials” (J Med Chem, 2019)

What was measured:
Mus musculus [1] = assay: Reduction in circulating lymphocytes in Balb/c mouse blood at 1 mg/kg, po measured at 4 hrs by hematology analyzer based analysis; type: functional; design: scale not given: the % may be the effect or the level left
Mus musculus [2] = assay: Reduction in circulating lymphocytes in Balb/c mouse blood at 50 mg/kg, po measured at 4 hrs by hematology analyzer based analysis; type: functional; design: scale not given: the % may be the effect or the level left
Mus musculus [3] = assay: Reduction in circulating lymphocytes in Balb/c mouse blood at 1 mg/kg, po measured at 24 hrs by hematology analyzer based analysis; type: functional; design: scale not given: the % may be the effect or the level left
Mus musculus [4] = assay: Reduction in circulating lymphocytes in Balb/c mouse blood at 50 mg/kg, po measured at 24 hrs by hematology analyzer based analysis; type: functional; design: scale not given: the % may be the effect or the level left
[5] = Drug metabolism in Balb/c mouse blood assessed as concentration of parent compound at 1 mg/kg, po measured at 4 hrs by LC-MS/MS analysis; type: ADME, organism-based; settings: read-out: Ct; for concentration: in vivo, 1 mg/kg, 4 h
[6] = Drug metabolism in Balb/c mouse blood assessed as concentration of parent compound at 50 mg/kg, po measured at 4 hrs by LC-MS/MS analysis; type: ADME, organism-based; settings: read-out: Ct
[7] = Drug metabolism in Balb/c mouse blood assessed as concentration of phosphate ester metabolite formation at 1 mg/kg, po measured at 4 hrs by LC-MS/MS analysis; type: ADME, organism-based; settings: in vivo
[8] = Drug metabolism in Balb/c mouse blood assessed as concentration of phosphate ester metabolite formation at 50 mg/kg, po measured at 4 hrs by LC-MS/MS analysis; type: ADME, organism-based; settings: in vivo
[9] = Drug metabolism in Balb/c mouse blood assessed as concentration of parent compound at 1 mg/kg, po measured at 24 hrs by LC-MS/MS analysis; type: ADME, organism-based; settings: read-out: Ct; for concentration at 24 h: Balb/c, blood
[10] = Drug metabolism in Balb/c mouse blood assessed as concentration of parent compound at 50 mg/kg, po measured at 24 hrs by LC-MS/MS analysis; type: ADME, organism-based; settings: read-out: Ct
[11] = Drug metabolism in Balb/c mouse blood assessed as concentration of phosphate ester metabolite formation at 1 mg/kg, po measured at 24 hrs by LC-MS/MS analysis; type: ADME, organism-based; settings: in vivo, BLD = below limit of detection
[12] = Drug metabolism in Balb/c mouse blood assessed as concentration of phosphate ester metabolite formation at 50 mg/kg, po measured at 24 hrs by LC-MS/MS analysis; type: ADME, organism-based; settings: in vivo
[13] = Ratio of drug metabolism in Balb/c mouse blood assessed as phosphate ester metabolite to parent drug at 30 mg/kg, po measured at 24 hrs by LC-MS/MS analysis; settings: in vivo
[14] = Cardiotoxicity in human iPSC derived cardiomyocytes assessed as reduction in beating rate at 1 nM measured over 2 hrs by multi-electrode array relative to control; type: toxicity, cell-based; design: scale not given: the % may be the effect or the level left; settings: stem cell-derived cardiomyocyte, 0.001 µM
[15] = Cardiotoxicity in human iPSC derived cardiomyocytes assessed as reduction in beating rate at 10 nM measured over 2 hrs by multi-electrode array relative to control; type: toxicity, cell-based; design: scale not given: the % may be the effect or the level left; settings: stem cell-derived cardiomyocyte, 0.01 µM
Rattus norvegicus [16] = assay: Reduction in circulating lymphocytes in Lewis rat blood at 2 mg/kg, po measured at 4 hrs by hematology analyzer based analysis; type: functional; design: scale not given: the % may be the effect or the level left
Rattus norvegicus [17] = assay: Reduction in circulating lymphocytes in Lewis rat blood at 2 mg/kg, po measured at 24 hrs by hematology analyzer based analysis; type: functional; design: scale not given: the % may be the effect or the level left
[18] = Drug metabolism in Lewis rat blood assessed as concentration of parent compound at 2 mg/kg, po measured at 4 hrs by LC-MS/MS analysis; type: ADME, organism-based; settings: read-out: Ct
[19] = Drug metabolism in Lewis rat blood assessed as concentration of parent compound at 2 mg/kg, po measured at 24 hrs by LC-MS/MS analysis; type: ADME, organism-based; settings: read-out: Ct
[20] = Half-life in Lewis rat at 2 mg/kg, po measured over 72 hrs by LC-MS/MS analysis; type: ADME, organism-based; settings: in vivo
[21] = Ratio of drug metabolism in Lewis rat blood assessed as phosphate ester metabolite to parent drug at 2 mg/kg, po measured at 24 hrs by LC-MS/MS analysis; type: ADME, organism-based; settings: in vivo
[22] = Pulmonary toxicity in Lewis rat assessed as elevation of BAL protein level at 3 mg/kg by advia1800 chemistry analyzer; type: organism-based; settings: in vivo
[23] = Pulmonary toxicity in Lewis rat assessed as elevation of BAL protein level at 10 mg/kg by advia1800 chemistry analyzer; type: organism-based; settings: in vivo
Rattus norvegicus [24] = assay: Reduction in circulating lymphocytes in Lewis rat blood assessed as effective dose after oral dosing measured at 24 hrs by hematology analyzer based analysis; type: functional
Rattus norvegicus [25] = assay: Drug metabolism in Lewis rat blood assessed as concentration of phosphate ester metabolite formation at 2 mg/kg, po measured at 4 hrs by LC-MS/MS analysis; settings: in vivo
[26] = Drug metabolism in pH 7.4 Tris-HCl buffer assessed as amount of phosphate ester metabolite formation at […] in presence of sphingosine kinase 1,2 and Mg-ATP incubated for 30 mins by TLC based analysis relative to fingolimod
Mus musculus [27] = assay: Reduction in circulating lymphocytes in Balb/c mouse blood at 30 mg/kg, po measured at 4 hrs by hematology analyzer based analysis; type: functional; design: scale not given: the % may be the effect or the level left; settings: 30 mg/kg, 4 h
Mus musculus [28] = assay: Reduction in circulating lymphocytes in Balb/c mouse blood at 30 mg/kg, po measured at 24 hrs by hematology analyzer based analysis; type: functional; design: scale not given: the % may be the effect or the level left; settings: 30 mg/kg, 24 h
[29] = Drug metabolism in Balb/c mouse blood assessed as concentration of parent compound at 30 mg/kg, po measured at 4 hrs by LC-MS/MS analysis; type: ADME, organism-based; settings: read-out: Ct
[30] = Drug metabolism in Balb/c mouse blood assessed as phosphate ester metabolite formation at 30 mg/kg, po measured at 4 hrs by LC-MS/MS analysis; type: ADME, organism-based; settings: in vivo
[31] = Drug metabolism in Balb/c mouse blood assessed as concentration of parent compound at 30 mg/kg, po measured at 24 hrs by LC-MS/MS analysis; type: ADME, organism-based; settings: in vivo, 30 mg/kg, 24 h, 30 mg/kg, 24 h, read-out: Ct
[32] = Drug metabolism in Balb/c mouse blood assessed as concentration of phosphate ester metabolite formation at 30 mg/kg, po measured at 24 hrs by LC-MS/MS analysis; type: ADME, organism-based; settings: in vivo
[33] = Ratio of drug metabolism in Balb/c mouse blood assessed as phosphate ester metabolite to parent drug at 30 mg/kg, po measured at 24 hrs by LC-MS/MS analysis; type: ADME, organism-based; settings: in vivo

## N[C@]1(CO)CC[C@H](c2ccc3c(c2)CC[C@@H](Cc2ccccc2)C3)C1
Mus musculus [1]
  Activity: <10%
Mus musculus [2]
  Activity: 82%
Mus musculus [3]
  Activity: <10%
Mus musculus [4]
  Activity: 84%
[5]; Balb/c, blood
  concentration at 4 h: 12 nM
[6]
  concentration at 4 h: 2400 nM
[7]
  Drug metabolism: 5.6 nM
[8]
  Drug metabolism: 1100 nM
[9]
  concentration at 24 h: 5.6 nM
[10]
  concentration at 24 h: 530 nM
[11]
  Drug metabolism: Bld
[12]
  Drug metabolism: 750 nM
[13]
  Ratio: 1.4

## COc1cccc(CC[C@H]2CCc3cc([C@H]4CC[C@](N)(COP(=O)(O)O)C4)ccc3C2)c1
[14]
  Activity: 23%
[15]
  Activity: 20%

## COc1ccccc1CC1CCc2cc([C@H]3CC[C@](N)(CO)C3)ccc2C1 (stereo partly specified)
Rattus norvegicus [16]
  Activity: <10%
Rattus norvegicus [17]
  Activity: 13%

## COc1ccccc1CC[C@H]1CCc2cc([C@H]3CC[C@](N)(COP(=O)(O)O)C3)ccc2C1
[14]
  Activity: 17%
[15]
  Activity: 18%

## COc1ccc(CC[C@@H]2CCc3cc([C@H]4CC[C@](N)(COP(=O)(O)O)C4)ccc3C2)cc1
[14]
  Activity: 27%
[15]
  Activity: 35%

## COc1cccc(CC[C@@H]2CCc3cc([C@H]4CC[C@](N)(COP(=O)(O)O)C4)ccc3C2)c1
[14]
  Activity: 15%
[15]
  Activity: 31%

## COc1cccc(CC[C@@H]2CCc3cc([C@H]4CC[C@](N)(CO)C4)ccc3C2)c1
Rattus norvegicus [16]
  Activity: 69%
[18]
  concentration at 4 h: 90 nM
Rattus norvegicus [17]
  Activity: 84%
[19]
  concentration at 24 h: 80 nM
[20]
  half-life: 31 h
[21]
  Ratio: 6.3
[22]
  Activity: 10 mg/dL
[23]
  Activity: 12.7 mg/dL
Rattus norvegicus [24]
  ED50: 0.05 mg/kg
Rattus norvegicus [25]
  Drug metabolism: 160 nM

## N[C@]1(CO)CC[C@H](c2ccc3c(c2)CC[C@H](CCc2ccccc2)C3)C1
Rattus norvegicus [16]
  Activity: 11%
[18]
  concentration at 4 h: 230 nM
Rattus norvegicus [17]
  Activity: 78%
[19]
  concentration at 24 h: 300 nM
[20]
  half-life: > 75 h
[21]
  Ratio: 1.2
Rattus norvegicus [25]
  Drug metabolism: 40 nM

## COc1ccnc(CC[C@H]2CCc3cc([C@H]4CC[C@](N)(CO)C4)ccc3C2)c1
[26]
  Drug metabolism: 3%

## Cn1cc(CC[C@@H]2CCc3cc([C@H]4CC[C@](N)(CO)C4)ccc3C2)cn1
[26]
  Drug metabolism: 6%

## Cn1ccc(CC[C@@H]2CCc3cc([C@H]4CC[C@](N)(CO)C4)ccc3C2)n1
[26]
  Drug metabolism: 8%

## Cn1cncc1CCC1CCc2cc([C@H]3CC[C@](N)(CO)C3)ccc2C1 (stereo partly specified)
[26]
  Drug metabolism: 5%

## N[C@]1(CO)CC[C@H](c2ccc3c(c2)CC[C@@H](CCc2ccccn2)C3)C1
[26]
  Drug metabolism: 4%

## N[C@]1(CO)CC[C@H](c2ccc3c(c2)CC[C@@H](CCc2cccnc2)C3)C1
[26]
  Drug metabolism: 3%

## N[C@]1(CO)CC[C@H](c2ccc3c(c2)CC[C@@H](CCc2ncccn2)C3)C1
[26]
  Drug metabolism: 4%

## N[C@]1(CO)CC[C@H](c2ccc3c(c2)CC[C@H](CCc2ccccn2)C3)C1
[26]
  Drug metabolism: 1.8%

## N[C@]1(CO)CC[C@H](c2ccc3c(c2)CC[C@H](CCc2cccnc2)C3)C1
[26]
  Drug metabolism: 24%

## N[C@]1(CO)CC[C@H](c2ccc3c(c2)CC[C@H](CCc2ncccn2)C3)C1
[26]
  Drug metabolism: 6%

## N[C@]1(CO)CC[C@H](c2ccc3c(c2)CCC(CCc2ccncc2)C3)C1 (single isomer, unassigned)
[26]
  Drug metabolism: 0%

## N[C@]1(CO)CC[C@H](c2ccc3c(c2)CCC(c2ccccc2)C3)C1 (stereo in doubt; 8a)
Mus musculus [27]
  Activity: 67%
Mus musculus [1]
  Activity: <10%
Mus musculus [28]
  Activity: 88%
Mus musculus [3]; 1 mg/kg, 24 h
  Activity: <10%
[29]; Balb/c, blood
  concentration at 4 h: 1500 nM
[5]
  concentration: 44 nM
[30]
  Drug metabolism: 43 nM
[7]; BLD = below limit of detection
  Drug metabolism: Bld
[31]
  concentration: 760 nM
[9]
  concentration at 24 h: 27 nM
[32]
  Drug metabolism: 110 nM
[11]
  Drug metabolism: Bld
[33]
  Ratio: 0.14

## N[C@]1(CO)CC[C@H](c2ccc3c(c2)CCC(c2ccccc2)C3)C1 (stereo in doubt; 8b)
Mus musculus [27]
  Activity: 72%
Mus musculus [28]
  Activity: 84%
Mus musculus [3]; 1 mg/kg, 24 h
  Activity: 36%
[29]; in vivo, 30 mg/kg, 4 h, 30 mg/kg, 4 h
  concentration: 750 nM
[5]
  concentration: 16 nM
[30]
  Drug metabolism: 36 nM
[31]
  concentration: 300 nM
[9]; in vivo, 1 mg/kg, 24 h, 1 mg/kg, 24 h
  concentration: 16 nM
[32]
  Drug metabolism: 49 nM
[33]
  Ratio: 0.16

## COc1cccc(CC2CCc3cc([C@H]4CC[C@](N)(CO)C4)ccc3C2)c1 (stereo in doubt; 12a)
Rattus norvegicus [16]; 2 mg/kg, 4 h
  Activity: 30%
[18]
  concentration at 4 h: 50 nM
Rattus norvegicus [17]; 2 mg/kg, 24 h
  Activity: 73%
[19]
  concentration at 24 h: 20 nM
[20]
  half-life: 15 h
[21]
  Ratio: 1
Rattus norvegicus [25]
  Drug metabolism: 10 nM

## COc1cccc(CC2CCc3cc([C@H]4CC[C@](N)(CO)C4)ccc3C2)c1 (stereo in doubt; 12b)
Rattus norvegicus [16]; 2 mg/kg, 4 h
  Activity: <10%
Rattus norvegicus [17]; 2 mg/kg, 24 h
  Activity: 45%

## COc1ccc(CC2CCc3cc([C@H]4CC[C@](N)(CO)C4)ccc3C2)cc1 (stereo in doubt; 13a)
Rattus norvegicus [16]
  Activity: <10%
Rattus norvegicus [17]; 2 mg/kg, 24 h
  Activity: 52%

## COc1ccc(CC2CCc3cc([C@H]4CC[C@](N)(CO)C4)ccc3C2)cc1 (stereo in doubt; 13b)
[18]
  concentration at 4 h: 90 nM
Rattus norvegicus [17]; 2 mg/kg, 24 h
  Activity: 73%
[19]
  concentration at 24 h: 60 nM
[20]
  half-life: 64 h
[21]
  Ratio: 1.3
Rattus norvegicus [25]
  Drug metabolism: 50 nM
